# Experimental data as given in patent US20220011296A1, “DETERMINING TREATMENT RESPONSE IN SINGLE CELLS” (Dana-Farber Cancer Institute, Inc., priority 2018, published 2022).
# “Also recorded” adds a separate entry of the source.
# Tests used:
# Type in all cases: cell-based, human
# [1] = system: Breast Met cells; test: Sample viability (Live/Dead), breast metastasis; details: 3 days, vehicle 35%
# Procedure: (§1) Primary Sample Handling. The six primary samples underwent the same protocol with regards to disassociation, recovery, and drugging; however, the exact timeline of each tissue varied slightly based on the amount of tissue and drug used (Table 1, below). After at least [culture time] in culture (with the exception of CNS lymphoma which was cultured for 24 hours), persistent red blood cells were removed with RBC lysis buffer (00-433-57, Thermo Fisher Scientific). The remaining cells were then dissociated with Accutase (A6964, Sigma-Aldrich) and further purified via demyelination (130-096-733, Miltenyi Biotec) with MS separation columns (130-042-201, Miltenyi Biotec), or debris removal (130-109-398, Miltenyi Biotec). The purified cells were plated in 6 or 24 well plates and allowed to recover in the well plate for [recovery time] before addition of the drug. After [drug duration] days, the samples were prepared for sSMR for drug response measurements by dissociation into a single-cell suspension using Accutase and gentle pipetting. Cells were resuspended at a concentration of 100,000 cells/mL in Neurocult NS-A (as prepared above) with the same concentration of drug or DMSO as their respective culture. Measurements for sample viability were determined (Table 2, below).
# [2] = system: Recurrent Glioblastoma cells; test: Sample viability (Live/Dead), recurrent glioblastoma; details: 1 μM Abema, 3 days; vehicle 67%
# Procedure: as §1
# [3] = system: metastatic non-small-cell lung cancer cells (BT1443); test: sSMR buoyant mass and MAR measurement, lung metastasis (BT1443); details: carboplatin 100 μM, 72 h
# Procedure: Patient-derived cells from six different types of brain tissues were assessed for drug sensitivity in the sSMR: non-tumor brain tissue from epilepsy surgery, glioblastoma, recurrent glioblastoma, breast metastasis, lung metastasis, and primary CNS lymphoma. Resected samples obtained with patient consent to research (Brigham and Women's Hospital, DF/HCC IRB-approved consent protocol 10-417) were enzymatically and physically dissociated using the Brain Tumor Dissociation Kit P (130-095-942, Miltenyi Biotec) and gentleMACS Dissociator (130-093-235, Miltenyi Biotec). […]
# Primary Sample Handling. […] Measurements for sample viability were determined (Table 2, below).
# Measurements were obtained from […] types of primary patient sample types, including: non-tumor brain tissue resected for a non-tumor condition (FIGS. 5A-5B, Table 6) (n=1); primary glioblastoma (FIGS. 5C-5D, Table 7) and recurrent glioblastoma (FIGS. 5E-5F, Table 8) (n=2); metastatic breast adenocarcinoma (FIGS. 5G-5H, Table 9) (n=1); metastatic non-small-cell lung cancer (FIGS. 5I-5J, Table 10) (n=1); and primary central nervous system (CNS) lymphoma (FIGS. 5K-5L, Table 11) (n=1). […] Overall, mass and MAR were measured for 1092 cells with an average of 84 cells measured per condition over 13 conditions tested (FIGS. 1B-1C). […]
# [4] = system: Lung Met cells; test: Sample viability (Live/Dead), lung metastasis; details: 100 μM Carbo, 3 days; vehicle 80%
# Procedure: as §1
# [5] = system: CNS Lymphoma cells; test: Sample viability (Live/Dead), CNS lymphoma; details: 10 nM Ibrutinib, 2 days; vehicle 74%
# Procedure: as §1
# [6] = system: Glioblastoma cells; test: Sample viability (Live/Dead), glioblastoma; details: 250 μM TMZ, 8 days; vehicle 73%
# Procedure: as §1
# [7] = system: glioblastoma multiforme (GBM) patient-derived cell lines (PDCLs); test: Single cell mass / MAR assay in patient-derived cell lines; details: TMZ compared with DMSO, heterogeneous cohort of PDCLs, FIG. 7A
# Procedure: A single cell protocol for monitoring the mass accumulation rate (MAR) in response to chemotherapy (FIGS. 6A-6F). After tumor resection, the tissue is dissociated into single cells (FIG. 6A). The single cells from the dissociated tumor is measured within a week of resection using the mass/MAR of the single cells in response to chemotherapeutic agents (FIG. 6C). In addition to acute sensitivity testing, dissociated tumor cells from patient samples can also be grown long-term into robust cell lines (e.g., patient-derived cell lines, PDCLs), where high throughput experiments can be performed and analyzed relative to a more complete genomic background of the tissue (FIG. 6D). Because this assay is high throughput, the MAR can be measured with more conditions relative to acute patient samples. These PDCLs can be implanted in vivo to allow MAR measurements to be taken ex vivo from treated animals (e.g., mice). Metabolic readouts (e.g., CellTiter-Glo, CTG) and spheroid area analysis (e.g., IncuCyte) were conducted in parallel to the novel single cell MAR assays described herein (FIG. 6E).
# Single cell MAR experiments were conducted in both PDCLs and acute patient models (FIGS. 7A-7D). […] The single cell MAR assay detected changes within 24 hours after treatment with a chemotherapeutic (TMZ) compared with DMSO (FIG. 7A).
# [8] = system: Normal brain cells; test: Sample viability (Live/Dead), normal brain; details: 250 μM TMZ, 3 days; vehicle 35%
# Procedure: as §1
structure (smiles),measurement,setting,value
CCN1CCN(Cc2ccc(Nc3ncc(F)c(-c4cc(F)c5nc(C)n(C(C)C)c5c4)n3)nc2)CC1 [Abemaciclib],Drug 2 Viability (Live/Dead),[1]; 100 nM Abema,35%
same,Drug 1 Viability (Live/Dead),[2],59%
N.N.O=C([O-])C1(C(=O)[O-])CCC1.[Pt+2] [Carboplatin],Mass-normalized MAR vs vehicle (in words),[3],significantly reduced; also recorded: Statistically significant reductions
same,Drug 1 Viability (Live/Dead),[4],74%
C=CC(=O)N1CCC[C@@H](n2nc(-c3ccc(Oc4ccccc4)cc3)c3c(N)ncnc32)C1 [Ibrutinib],Drug 1 Viability (Live/Dead),[5],65%
"CO[C@H]1C[C@@H]2CC[C@@H](C)[C@@](O)(O2)C(=O)C(=O)N2CCCC[C@H]2C(=O)O[C@H]([C@H](C)C[C@@H]2CC[C@@H](OCCO)[C@H](OC)C2)CC(=O)[C@H](C)/C=C(\C)[C@@H](O)[C@@H](OC)C(=O)[C@H](C)C[C@H](C)/C=C/C=C/C=C/1C [RAD001, everolimus]",Drug 1 Viability (Live/Dead),[1]; 1 nM RAD,32%
"Cn1nnc2c(C(N)=O)ncn2c1=O [TMZ, Temozolomide]",Drug 1 Viability (Live/Dead),[6],69%
same,time after treatment at which single cell MAR changes were detected,[7],≤ 24 h
same,Drug 1 Viability (Live/Dead),[8],30%
